Experimental data published in PubChem BioAssay AID248 (DTP/NCI, 2004).
Where “and” joins values, the source holds several entries; their conditions need not be identical. Equal entries are not always repeated. Inconclusive results and toxic doses are left out. Cut-off read from the data, not from the text of the source: active = T/C of 150% or more; inactive = T/C below 125%.

System: L1210 leukemia ip in BDF1 mice, survival T/C
Assay: NCI In Vivo Anticancer Drug Screen. Data for tumor model L1210 Leukemia (intraperitoneal) in B6D2F1 (BDF1) mice
Details: endpoint: mean survival time, higher = longer survival
Method in brief: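 Tumor was transplanted into mice, which were then dosed with test compound or vehicle alone. Survival was recorded for each group, and the treated figure was expressed relative to the control figure.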

[1] = dose: 50.0 mg/kg/injection, schedule: Q01DX001 (ip), vehicle: saline
[2] = dose: 50.0 mg/kg/injection, schedule: Q04DX003 (ip), vehicle: saline
[3] = dose: 100.0 mg/kg/injection, schedule: Q01DX001 (ip), vehicle: saline
[4] = dose: 100.0 mg/kg/injection, schedule: Q04DX003 (ip), vehicle: saline
[5] = dose: 200.0 mg/kg/injection, schedule: Q01DX001 (ip), vehicle: saline
[6] = dose: 400.0 mg/kg/injection, schedule: Q01DX001 (ip), vehicle: saline
[7] = dose: 25.0 mg/kg/injection, schedule: Q01DX009 (ip), vehicle: Klucel (hydroxypropylcellulose) (HPC)
[8] = dose: 50.0 mg/kg/injection, schedule: Q01DX009 (ip), vehicle: Klucel (hydroxypropylcellulose) (HPC)
[9] = dose: 100.0 mg/kg/injection, schedule: Q01DX009 (ip), vehicle: Klucel (hydroxypropylcellulose) (HPC)
[10] = dose: 200.0 mg/kg/injection, schedule: Q04DX003 (ip), vehicle: saline
[11] = dose: 100.0 mg/kg/injection, schedule: Q01DX009 (ip), vehicle: saline with Tween-80
[12] = dose: 200.0 mg/kg/injection, schedule: Q01DX009 (ip), vehicle: saline with Tween-80

Measured: T/C

CCOC(=O)Nc1cncc(NC(=O)OCC)n1
inactive: dose: 6.25 mg/kg/injection, schedule: Q01DX009 (ip), vehicle: water 96 % of control | dose: 12.5 mg/kg/injection, schedule: Q01DX009 (ip), vehicle: water 90 % of control | dose: 25.0 mg/kg/injection, schedule: Q01DX009 (ip), vehicle: water 117 % of control and 91 % of control | dose: 50.0 mg/kg/injection, schedule: Q01DX009 (ip), vehicle: water 93 % of control and 91 % of control | dose: 100.0 mg/kg/injection, schedule: Q01DX009 (ip), vehicle: water 96 % of control and 101 % of control | dose: 200.0 mg/kg/injection, schedule: Q01DX009 (ip), vehicle: water 111 % of control

C/C(=N\[N+](C)(C)C)c1ccc(C)cc1
inactive: dose: 12.5 mg/kg/injection, schedule: Q01DX001 (ip), vehicle: saline 112 % of control | dose: 25.0 mg/kg/injection, schedule: Q01DX001 (ip), vehicle: saline 104 % of control | dose: 25.0 mg/kg/injection, schedule: Q04DX003 (ip), vehicle: saline 107 % of control | [1] 108 % of control | [2] 100 % of control | [3] 101 % of control | [4] 105 % of control

OCC1OC(n2c3ccccc3c3ccccc32)C(O)C(O)C1O (configuration not stated)
inactive: dose: 60.0 mg/kg/injection, schedule: Q04DX002 (ip), vehicle: DMSO 108 % of control | dose: 120.0 mg/kg/injection, schedule: Q04DX002 (ip), vehicle: DMSO 102 % of control

c1ccc2c[s+]ccc2c1
inactive: dose: 100.0 mg/kg/injection, schedule: Q04DX002 (ip), vehicle: saline 90 % of control | dose: 200.0 mg/kg/injection, schedule: Q04DX002 (ip), vehicle: saline 94 % of control | dose: 400.0 mg/kg/injection, schedule: Q04DX002 (ip), vehicle: saline 103 % of control

Cc1csc[n+]1CCS(=O)(=O)[O-]
inactive: [3] 95 % of control | [5] 97 % of control | [6] 97 % of control

CONC(=O)Nc1cccc2ccccc12
inactive: dose: 75.0 mg/kg/injection, schedule: Q01DX001 (ip), vehicle: other 100 % of control | dose: 75.0 mg/kg/injection, schedule: Q04DX003 (ip), vehicle: other 97 % of control | dose: 150.0 mg/kg/injection, schedule: Q01DX001 (ip), vehicle: other 110 % of control | dose: 150.0 mg/kg/injection, schedule: Q04DX003 (ip), vehicle: other 96 % of control | dose: 300.0 mg/kg/injection, schedule: Q01DX001 (ip), vehicle: other 106 % of control | dose: 300.0 mg/kg/injection, schedule: Q04DX003 (ip), vehicle: other 100 % of control

CC1=CCC(C(C)C)C=C1 (configuration not stated)
inactive: [7] 101 % of control | [8] 96 % of control | [9] 102 % of control | dose: 100.0 mg/kg/injection, schedule: Q01DX009 (ip), vehicle: saline 93 % of control | [4] 96 % of control | dose: 200.0 mg/kg/injection, schedule: Q01DX009 (ip), vehicle: Klucel (hydroxypropylcellulose) (HPC) 96 % of control | [10] 98 % of control | dose: 400.0 mg/kg/injection, schedule: Q04DX003 (ip), vehicle: saline 97 % of control

CC(C)C1CCC(C)C(NC(N)=O)C1 (configuration not stated)
inactive: [3] 95 % of control | [5] 97 % of control | [6] 106 % of control

CC/C(=C(\CC)c1ccc(OCC(=O)N2CC2)cc1)c1ccc(OCC(=O)N2CC2)cc1
inactive: dose: 2.5 mg/kg/injection, schedule: Q04DX002 (ip), vehicle: saline 101 % of control | dose: 5.0 mg/kg/injection, schedule: Q04DX002 (ip), vehicle: saline 101 % of control | dose: 10.0 mg/kg/injection, schedule: Q04DX002 (ip), vehicle: saline 105 % of control

CCCCN(CCCC)CCNc1ccc(Cl)c2oc3cc(C)ccc3c(=O)c12
inactive: dose: 12.5 mg/kg/injection, schedule: Q01DX009 (ip), vehicle: Klucel (hydroxypropylcellulose) (HPC) 95 % of control | dose: 12.5 mg/kg/injection, schedule: Q04DX003 (ip), vehicle: saline with Tween-80 94 % of control | [7] 92 % of control | dose: 25.0 mg/kg/injection, schedule: Q04DX003 (ip), vehicle: saline with Tween-80 95 % of control | [1] 93 % of control | [8] 93 % of control | dose: 50.0 mg/kg/injection, schedule: Q04DX003 (ip), vehicle: saline with Tween-80 87 % of control | [3] 98 % of control | [9] 95 % of control | [5] 93 % of control | [6] 98 % of control

CCOC(=O)c1c(C)cc(O)cc1O
inactive: [11] 114 % of control | [12] 106 % of control | dose: 400.0 mg/kg/injection, schedule: Q01DX009 (ip), vehicle: saline with Tween-80 102 % of control

Cc1ccc(C2OC23CC(C)(C)c2ccccc2C3=O)cc1 (configuration not stated)
inactive: dose: 100.0 mg/kg/injection, schedule: Q04DX003 (ip), vehicle: saline with Tween-80 93 % of control | dose: 200.0 mg/kg/injection, schedule: Q04DX003 (ip), vehicle: saline with Tween-80 96 % of control | dose: 400.0 mg/kg/injection, schedule: Q04DX003 (ip), vehicle: saline with Tween-80 93 % of control

Cc1ccc2c(c1)CC(C)([CH2][Hg][Cl])O2 (configuration not stated)
inactive: dose: 3.0 mg/kg/injection, schedule: Q01DX009 (ip), vehicle: Klucel (hydroxypropylcellulose) (HPC) 91 % of control | dose: 3.0 mg/kg/injection, schedule: Q04DX003 (ip), vehicle: Klucel (hydroxypropylcellulose) (HPC) 90 % of control | dose: 6.0 mg/kg/injection, schedule: Q01DX009 (ip), vehicle: Klucel (hydroxypropylcellulose) (HPC) 91 % of control | dose: 6.0 mg/kg/injection, schedule: Q04DX003 (ip), vehicle: Klucel (hydroxypropylcellulose) (HPC) 87 % of control | dose: 12.0 mg/kg/injection, schedule: Q04DX003 (ip), vehicle: Klucel (hydroxypropylcellulose) (HPC) 92 % of control

Cc1cc(Br)c(N(C=O)N=O)c(Br)c1
inactive: dose: 75.0 mg/kg/injection, schedule: Q01DX001 (ip), vehicle: saline 101 % of control | dose: 150.0 mg/kg/injection, schedule: Q01DX001 (ip), vehicle: saline 104 % of control

CN1CCN(CCCN2C(c3ccccc3)C2c2ccccc2)CC1 (configuration not stated)
inactive: [2] 101 % of control | [4] 93 % of control | [10] 93 % of control

CCOC(=O)C12CCCCC1=CC1(CC2)SCCS1 (configuration not stated)
active: dose: 400.0 mg/kg/injection, schedule: Q01DX009 (ip), vehicle: acetone 246 % of control
inactive: dose: 100.0 mg/kg/injection, schedule: Q01DX009 (ip), vehicle: acetone 88 % of control | dose: 200.0 mg/kg/injection, schedule: Q01DX009 (ip), vehicle: acetone 91 % of control

S=C([S][Sn]([c]1ccccc1)([c]1ccccc1)[c]1ccccc1)N1CCOCC1
inactive: dose: 100.0 mg/kg/injection, schedule: Q04DX003 (ip), vehicle: Klucel (hydroxypropylcellulose) (HPC) 100 % of control | dose: 200.0 mg/kg/injection, schedule: Q04DX003 (ip), vehicle: Klucel (hydroxypropylcellulose) (HPC) 96 % of control | dose: 400.0 mg/kg/injection, schedule: Q04DX003 (ip), vehicle: Klucel (hydroxypropylcellulose) (HPC) 94 % of control

CC12CCC3c4ccc(O)cc4CCC3C1CCC2=O (configuration not stated)
inactive: dose: 100.0 mg/kg/injection, schedule: Q01DX001 (sc), vehicle: steriod suspending solution 92 % of control | dose: 200.0 mg/kg/injection, schedule: Q01DX001 (sc), vehicle: steriod suspending solution 92 % of control | dose: 400.0 mg/kg/injection, schedule: Q01DX001 (sc), vehicle: steriod suspending solution 86 % of control

O=C(O)c1cccc2c1OCO2
inactive: dose: 50.0 mg/kg/injection, schedule: Q01DX009 (ip), vehicle: saline with Tween-80 112 % of control | [11] 98 % of control | dose: 100.0 mg/kg/injection, schedule: Q04DX002 (ip), vehicle: saline with Tween-80 103 % of control | [12] 98 % of control | dose: 200.0 mg/kg/injection, schedule: Q04DX002 (ip), vehicle: saline with Tween-80 95 % of control
